The values that follow come from patent US12454529B2, “Piperazine cyclic ureas” (SIRONAX LTD., priority 2020, dated 2025).

For the experiment, the system named is HT-29 cells. Kind of experiment: HT-29 cell necrosis/necroptosis inhibition (TNF-α + SMAC mimetic + zVAD-FMK; CellTiter-Glo cell viability). The format is cell-based. The note with it: HT-29 cells, TNF-α 10 ng/ml + SMAC mimetic 6 μM + zVAD-FMK 10 μM, 20 hours, geometric mean, 10 points in duplicate. The method in brief:
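Necroptosis was driven by TNF-α 10 ng/ml plus SMAC mimetic 6 μM and zVAD-FMK 10 μM in serum-free medium, with compounds as a 10-point threefold titration. After 20 h at 37 °C, ATP-based luminescence was read; EC50 values are geometric means of duplicate curves.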
A general note: Cellular ATP, detected with luciferase, serves as a proxy for viable cell number.

Where [1] appears, read: Homo sapiens, read-out: EC50 (Cell activity; Necrosis/Necroptosis Inhibitory Activity, Compounds 1-142).
[2] abbreviates: Homo sapiens, read-out: EC50 (Cell activity; Necrosis/Necroptosis Inhibitory Activity, Compounds 143-323).

Like-named read-outs stand apart in the source and are kept apart here.

As a reminder, the EC50 is the concentration needed to bring the measured effect to its halfway point. As for `Cn1c(-c2nc(N3CCN(C(=O)N4N=CC[C@H]4c4cc(F)cc(C#N)c4)CC3)ncc2F)cc(=O)n(C)c1=O` [Compound 51, (S)-3-fluoro-5-(1-(4-(5-fluoro-1′,3′-dimethyl-2′,6′-dioxo-1′,2′,3′,6′-tetrahydro-[4,4′-bipyrimidin]-2-yl)piperazine-1-carbonyl)-4,5-dihydro-1H-pyrazol-5-yl)benzonitrile], under setting [1], the 50% effective concentration (EC50) is 0.1 to 100 nM.
On to `Cc1nn(CC(N)=O)c(C)c1-c1nc(N2CCN(C(=O)N3N=CC[C@H]3c3cc(F)cc(C#N)c3)CC2)ncc1F` [Compound 123, (S)-2-(4-(2-(4-(5-(3-cyano-5-fluorophenyl)-4,5-dihydro-1H-pyrazole-1-carbonyl)piperazin-1-yl)-5-fluoropyrimidin-4-yl)-3,5-dimethyl-1H-pyrazol-1-yl)acetamide], for which, under setting [1], the half-maximal effective concentration (EC50) fell in the range of 0.1 to 100 nM.
Regarding `Cn1nc(CF)nc1-c1nc(N2CCN(C(=O)N3N=CC[C@H]3c3cc(F)cc(C#N)c3)CC2)ncc1F` [Compound 170, (S)-3-fluoro-5-(1-(4-(5-fluoro-4-(3-(fluoromethyl)-1-methyl-1H-1,2,4-triazol-5-yl)pyrimidin-2-yl)piperazine-1-carbonyl)-4,5-dihydro-1H-pyrazol-5-yl)benzonitrile], the EC50 under setting [2] fell in the range of 0.1 to 100 nM.
In the case of `Cc1nn(-c2ccnc(N3CCN(C(=O)N4N=CC[C@H]4c4cc(F)cc(C#N)c4)CC3)n2)c(C)c1C#N` [Compound 274, (S)-1-(2-(4-(5-(3-cyano-5-fluorophenyl)-4,5-dihydro-1H-pyrazole-1-carbonyl)piperazin-1-yl)pyrimidin-4-yl)-3,5-dimethyl-1H-pyrazole-4-carbonitrile], under setting [2], the EC50 fell in the range of 0.1 to 100 nM.
For the compound `Cc1nn(-c2cc(N3CCN(C(=O)N4N=CC[C@H]4c4cncc(F)c4)CC3)ncn2)c(C)c1C(N)=O` [Compound 284, (S)-1-(6-(4-(5-(5-fluoropyridin-3-yl)-4,5-dihydro-1H-pyrazole-1-carbonyl)piperazin-1-yl)pyrimidin-4-yl)-3,5-dimethyl-1H-pyrazole-4-carboxamide], the EC50 under setting [2] is 100 to 1000 nM.
With `COC(=O)c1cc(C)n(-c2nc(N3CCN(C(=O)N4N=CC[C@H]4c4cc(F)cc(F)c4)CC3)ncc2F)c1` [Compound 91, methyl (5)-1-(2-(4-(5-(3,5-difluorophenyl)-4,5-dihydro-1H-pyrazole-1-carbonyl)piperazin-1-yl)-5-fluoropyrimidin-4-yl)-5-methyl-1H-pyrrole-3-carboxylate], the 50% effective concentration (EC50) under setting [1] is 0.1 to 100 nM.
For the compound `Cn1ncnc1-c1nc(N2CCN(C(=O)N3N=CC[C@H]3c3cc(F)cc(C#N)c3)CC2)ncc1Cl` [Compound 166, (S)-3-(1-(4-(5-chloro-4-(1-methyl-1H-1,2,4-triazol-5-yl)pyrimidin-2-yl)piperazine-1-carbonyl)-4,5-dihydro-1H-pyrazol-5-yl)-5-fluorobenzonitrile], the EC50 under setting [2] was in the range of 0.1 to 100 nM.
`Cc1nc(C2CC=NN2C(=O)N2CCN(c3cc(-c4c(C)cnn4C)ncc3F)CC2)cs1` (stereo not shown) [Compound 156, (4-(2-(1,4-dimethyl-1H-pyrazol-5-yl)-5-fluoropyridin-4-yl)piperazin-1-yl)(5-(2-methylthiazol-4-yl)-4,5-dihydro-1H-pyrazol-1-yl)methanone]: under setting [2], the half-maximal effective concentration (EC50) was 100 to 1000 nM.
Same read-out and setting: under `Cn1nc(C(N)=O)nc1-c1nc(N2CCN(C(=O)N3N=CCC3c3cc(F)cc(F)c3)CC2)ncc1F` (stereo not shown) [Compound 225, 5-(2-(4-(5-(3,5-difluorophenyl)-4,5-dihydro-1H-pyrazole-1-carbonyl)piperazin-1-yl)-5-fluoropyrimidin-4-yl)-1-methyl-1H-1,2,4-triazole-3-carboxamide] stands 0.1 to 100 nM.
Same read-out and setting: as for `Cc1nnc(-c2nc(N3CCN(C(=O)N4N=CC[C@H]4c4cc(F)cc(F)c4)CC3)ncc2F)o1` [Compound 187, (S)-(5-(3,5-difluorophenyl)-4,5-dihydro-1H-pyrazol-1-yl)(4-(5-fluoro-4-(5-methyl-1,3,4-oxadiazol-2-yl)pyrimidin-2-yl)piperazin-1-yl)methanone], the figure is 0.1 to 100 nM.
For the compound `Cc1nc(C)n(-c2nc(N3CCN(C(=O)N4N=CCC4c4ncc(C)s4)CC3)ncc2F)n1` (stereo not shown) [Compound 231, (4-(4-(3,5-dimethyl-1H-1,2,4-triazol-1-yl)-5-fluoropyrimidin-2-yl)piperazin-1-yl)(5-(5-methylthiazol-2-yl)-4,5-dihydro-1H-pyrazol-1-yl)methanone], the EC50 (read-out: EC50 (Cell activity; Necrosis/Necroptosis Inhibitory Activity, Compounds 143-323)) lay within 0.1 to 100 nM.
`O=C(N1CCN(c2nccc(-c3ccc[nH]3)n2)CC1)N1N=CC[C@H]1c1cc(F)cc(F)c1` [Compound 6, (S)-(4-(4-(1H-pyrrol-2-yl)pyrimidin-2-yl)piperazin-1-yl)(5-(3,5-difluorophenyl)-4,5-dihydro-1H-pyrazol-1-yl)methanone]: the EC50 under setting [1] fell in the range of 0.1 to 100 nM.
`Cc1ncc(C2CC=NN2C(=O)N2CCN(c3cc(-c4c(C)cnn4C)ncc3F)CC2)s1` (stereo not shown) [Compound 292, (4-(2-(1,4-dimethyl-1H-pyrazol-5-yl)-5-fluoropyridin-4-yl)piperazin-1-yl)(5-(2-methylthiazol-5-yl)-4,5-dihydro-1H-pyrazol-1-yl)methanone]: under setting [2], the EC50 is 100 to 1000 nM.
On the same count and under the same terms, under `Cc1nc(C(F)(F)F)nn1-c1nc(N2CCN(C(=O)N3N=CC[C@H]3c3cc(F)cc(F)c3)CC2)ncc1F` [Compound 203, (S)-(5-(3,5-difluorophenyl)-4,5-dihydro-1H-pyrazol-1-yl)(4-(5-fluoro-4-(5-methyl-3-(trifluoromethyl)-1H-1,2,4-triazol-1-yl)pyrimidin-2-yl)piperazin-1-yl)methanone] stands 0.1 to 100 nM.
The same measure, in the same setting: under `N#Cc1cnn(-c2ncc(F)c(N3CCN(C(=O)N4N=CC[C@H]4c4cc(F)cc(F)c4)CC3)n2)c1` [Compound 218, (S)-1-(4-(4-(5-(3,5-difluorophenyl)-4,5-dihydro-1H-pyrazole-1-carbonyl)piperazin-1-yl)-5-fluoropyrimidin-2-yl)-1H-pyrazole-4-carbonitrile] stands 0.1 to 100 nM; under `CCn1nc(C)n(-c2nc(N3CCN(C(=O)N4N=CC[C@H]4c4cc(F)cc(F)c4)CC3)ncc2F)c1=O` [Compound 182, (S)-4-(2-(4-(5-(3,5-difluorophenyl)-4,5-dihydro-1H-pyrazole-1-carbonyl)piperazin-1-yl)-5-fluoropyrimidin-4-yl)-2-ethyl-5-methyl-2,4-dihydro-3H-1,2,4-triazol-3-one], 0.1 to 100 nM.
Turning to `Cn1cc(-c2nc(N3CCN(C(=O)N4N=CC[C@H]4c4cc(F)cc(C#N)c4)CC3)ncc2F)nn1` [Compound 40], the EC50 under setting [1] fell in the range of 0.1 to 100 nM.
Turning to `Cc1nn(CC2COC2)c(C)c1-c1nc(N2CCN(C(=O)N3N=CC[C@H]3c3cc(F)cc(C#N)c3)CC2)ncc1F` [Compound 135, (S)-3-(1-(4-(4-(3,5-dimethyl-1-(oxetan-3-ylmethyl)-1H-pyrazol-4-yl)-5-fluoropyrimidin-2-yl)piperazine-1-carbonyl)-4,5-dihydro-1H-pyrazol-5-yl) fluorobenzonitrile], the EC50 under setting [1] is 0.1 to 100 nM.
On to `Cc1nnc(-c2nc(N3CCN(C(=O)N4N=CC[C@H]4c4cc(F)cc(C#N)c4)CC3)ncc2F)n1C` [Compound 179, (S)-3-(1-(4-(4-(4,5-dimethyl-4H-1,2,4-triazol-3-yl)-5-fluoropyrimidin-2-yl)piperazine-1-carbonyl)-4,5-dihydro-1H-pyrazol-5-yl)-5-fluorobenzonitrile], for which the EC50 under setting [2] lay within 0.1 to 100 nM.
